Assay results from PMC12386283, “Elucidating the Complex Structural and Molecular Mechanisms Driving P-Glycoprotein-Mediated Transport of Cardiac Glycosides” (International Journal of Molecular Sciences, 2025).

Experiments:
[1] = molecular target: T1, P-glycoprotein (wild-type mouse Pgp, MDR3) (Mus musculus, UniProt P21447); assay: in vitro; settings: mouse, pH 7.4
Method: Overexpression of wild-type mouse Pgp (MDR3) was achieved by using genetically engineered strains of Pichia pastoris with a 6X histidine tag. The cells were cultured in glycerol media, and methanol was used to induce the overexpression of Pgp at the Bioexpression and Fermentation Facility (BFF), University of Georgia, Athens, GA, USA. A repeated cycle of freezing using liquid nitrogen, blending, and thawing was used to lyse the Pgp-expressing P. pastoris cells. The protein was purified using affinity chromatography with nickel-nitrilotriacetic acid (Ni-NTA) resin (Thermo Fisher Scientific, Waltham, MA, USA). DDM was used to solubilize the protein, and the solution was concentrated using Amicon Ultra-15 100 kDa cut-off filters (EMD Millipore, Billerica, MA, USA). […] The purified DDM-solubilized Pgp was aliquoted and stored at −80 °C for future analysis.
Pgp was reconstituted into liposomes as previously described. Briefly, liposomes comprising 80% (w/v) Avanti Escherichia coli total lipid extract and 20% (w/v) cholesterol were dissolved in chloroform to achieve a final concentration of 10 mg mL^−1, and the volume was adjusted to 10 mL. […] The solution was subjected to ten cycles of freeze–thaw using liquid nitrogen and a water bath (67 °C), resulting in the formation of liposomes with varying sizes, and extruded eleven times in a LIPEX extruder (Northern Lipids, Burnaby, BC, Canada) to produce identical-sized liposomes, using a 400 nm cut-off filter.
(§1) Approximately 40 µL of DDM-solubilized Pgp was dialyzed for two hours against HEPES buffer (20 mM HEPES, 100 mM NaCl, 5 mM MgCl2, 2 mM DTT, pH 7.4) to remove any remnants of the detergent, DDM. The dialyzed protein was mixed with 4 mg mL^−1 of the extruded liposomes and incubated on ice for at least one hour to allow Pgp to integrate into the liposomes. To remove any additional detergent and further facilitate Pgp integration into the liposome, the solution was dialyzed for a second time for two hours in HEPES buffer to form proteoliposomes, and the concentration of Pgp reconstituted in liposomes was determined using the Bio-Rad DC Protein assay. Finally, the solution was aliquoted and stored at −80 °C for future use.
The Chifflet method is a colorimetric method that measures the amount of free inorganic phosphate (Pi) through the formation of ammonium molybdate and Pi complex, which produces a strong absorbance at 850 nm. The absorbance was measured on a 96-well plate using a CLARIOstar microplate reader (BMG Labtech, Ortenberg, Germany). […] The final concentrations of the proteoliposome and ATP were maintained at 50 nM and 3.2 mM, respectively. Orthovanadate was used as a control and run in parallel to the samples. Finally, the kinetic curves for ATPase activity were fit to a modified Michaelis-Menten equation (Equation (1)). Igor 6.2 Pro software (Wavemetrics, Tigard, OR, USA) was used for data analysis.(1) V=VmaxS/Km+S+Vbasal where V = Rate of ATP hydrolysis; Vmax = Maximum velocity of ATP hydrolysis; [S] = Substrate concentration; Km = Michaelis–Menten constant; and Vbasal = basal ATPase activity.

Pgp = settings: MDCK cell lines overexpressing Pgp; cited from earlier work
[2] = molecular target: T1, P-glycoprotein (wild-type mouse Pgp, MDR3); assay: in vitro; settings: mouse, pH 7.4; remark: listed apart in the source
Method: Overexpression of wild-type mouse Pgp (MDR3) was achieved by using genetically engineered strains of Pichia pastoris with a 6X histidine tag. The cells were cultured in glycerol media, and methanol was used to induce the overexpression of Pgp at the Bioexpression and Fermentation Facility (BFF), University of Georgia, Athens, GA, USA. A repeated cycle of freezing using liquid nitrogen, blending, and thawing was used to lyse the Pgp-expressing P. pastoris cells. The protein was purified using affinity chromatography with nickel-nitrilotriacetic acid (Ni-NTA) resin (Thermo Fisher Scientific, Waltham, MA, USA). DDM was used to solubilize the protein, and the solution was concentrated using Amicon Ultra-15 100 kDa cut-off filters (EMD Millipore, Billerica, MA, USA). The concentration of purified protein was measured at 280 nm using a calculated extinction coefficient of 1.28 per mg mL^−1 on a Nanodrop (DeNovix, Wilmington, DE, USA). […] The purified DDM-solubilized Pgp was aliquoted and stored at −80 °C for future analysis.
as §1
The intrinsic tryptophan residues in the protein can be selectively excited and emitted at 295 nm and 330 nm wavelengths, respectively. The binding of the drug to the protein can alter the spatial arrangement encountered by the tryptophan residue(s) and thereby regulate the fluorescence intensity of the protein [52]. […] Proteoliposomes diluted to 1 µM in Chifflet buffer containing 2 mM DTT were titrated against varying concentrations of drugs. The intrinsic protein fluorescence was measured at 330 nm upon excitation at 295 nm using an Olis DM 45 spectrophotometer (Olis Corporation, Bogart, GA, USA). To nullify the effect of Rayleigh bands on the observed spectra, a 10 nm band-pass filter was inserted on the excitation and emission paths of the spectrophotometer. The drug-induced quenching of intrinsic Pgp fluorescence was corrected (Fcorrected) for factors such as dilution, background fluorescence, and inner filter effects using the equation mentioned below (Equation (2)).(2) Fcorrected=F−B10^εexbex+εembemQ/2 where Fcorrected = Drug-induced quenching of intrinsic Pgp fluorescence; F = Emitted intrinsic Pgp fluorescence at 330 nm; [Q] = Concentration of drug; εex and εem = Excitation and emission extinction coefficients, respectively; bex and bem = Path lengths of excitation (0.4 mm) and emission (10 mm) wavelengths, respectively; and B = Background fluorescence measured from drug and solvent.
The resulting quenching curves were fit using a modified Stern-Volmer equation (Equation (3)), as follows:(3) Fcorrected=FOcorrected/1+KsvQ+Funquenched where Fcorrected = The corrected fluorescence; F0(corrected) = Fluorescence recorded in the absence of drug; [Q] = Concentration of drug; Ksv = Stern–Volmer constant; and F(unquenched) = unquenched fluorescence.

[3] = system: Pgp mutants F336A and I340A; settings: cited from earlier work

T1 sequence (P21447 whole entry): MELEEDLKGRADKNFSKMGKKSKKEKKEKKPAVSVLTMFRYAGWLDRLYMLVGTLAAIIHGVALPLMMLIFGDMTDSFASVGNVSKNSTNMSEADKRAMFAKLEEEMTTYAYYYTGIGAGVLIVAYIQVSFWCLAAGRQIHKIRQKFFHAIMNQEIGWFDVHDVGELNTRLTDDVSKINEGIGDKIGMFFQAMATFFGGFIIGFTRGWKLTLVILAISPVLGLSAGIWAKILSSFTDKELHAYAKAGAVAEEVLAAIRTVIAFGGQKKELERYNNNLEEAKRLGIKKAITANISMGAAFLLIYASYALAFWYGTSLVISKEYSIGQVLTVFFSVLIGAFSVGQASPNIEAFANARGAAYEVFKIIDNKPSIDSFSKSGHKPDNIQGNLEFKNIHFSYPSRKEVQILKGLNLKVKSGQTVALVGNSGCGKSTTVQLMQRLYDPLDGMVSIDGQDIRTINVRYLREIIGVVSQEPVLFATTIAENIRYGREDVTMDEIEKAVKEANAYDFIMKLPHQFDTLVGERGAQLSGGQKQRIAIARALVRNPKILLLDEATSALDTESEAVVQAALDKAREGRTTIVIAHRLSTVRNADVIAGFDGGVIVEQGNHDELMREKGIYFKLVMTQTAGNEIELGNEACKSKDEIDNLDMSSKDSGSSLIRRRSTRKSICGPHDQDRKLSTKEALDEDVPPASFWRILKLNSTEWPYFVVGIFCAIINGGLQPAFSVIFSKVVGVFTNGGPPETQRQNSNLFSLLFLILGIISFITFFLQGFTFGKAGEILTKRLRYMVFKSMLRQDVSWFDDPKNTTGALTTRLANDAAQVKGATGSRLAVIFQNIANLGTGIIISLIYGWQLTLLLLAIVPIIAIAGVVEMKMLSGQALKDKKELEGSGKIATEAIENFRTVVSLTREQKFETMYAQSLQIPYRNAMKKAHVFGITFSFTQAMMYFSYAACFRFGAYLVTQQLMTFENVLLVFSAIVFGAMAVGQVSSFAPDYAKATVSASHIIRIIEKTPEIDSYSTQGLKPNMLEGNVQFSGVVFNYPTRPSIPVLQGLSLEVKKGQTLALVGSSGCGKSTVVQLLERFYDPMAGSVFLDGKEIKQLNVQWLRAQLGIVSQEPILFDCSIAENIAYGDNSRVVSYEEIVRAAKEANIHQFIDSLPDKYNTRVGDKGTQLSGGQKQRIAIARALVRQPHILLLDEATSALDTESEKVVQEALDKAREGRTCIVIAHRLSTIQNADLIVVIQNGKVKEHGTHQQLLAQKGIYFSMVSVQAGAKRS

SMILES: C[C@]12CC[C@H](O)C[C@H]1CC[C@@H]1[C@@H]2CC[C@]2(C)[C@@H](C3=CC(=O)OC3)CC[C@]12O [Digitoxigenin, (3β,5β)-3,14-Dihydroxy-card-20(22)-enolide]
- Km [1]: 67.6 ± 19.8 µM
- Intracellular accumulation in Pgp-overexpressing cells (Pgp): no significant difference

SMILES: C[C@]12CC[C@H](O)C[C@H]1CC[C@@H]1[C@@H]2C[C@@H](O)[C@]2(C)[C@@H](C3=CC(=O)OC3)CC[C@]12O [Digoxigenin, 3β,12β,14-Trihydroxy-5β,20(22)-cardenolide]
- Kd [2]: 10.16 ± 0.01 µM

SMILES: C[C@H]1O[C@@H](O[C@H]2[C@@H](O)C[C@H](O[C@H]3[C@@H](O)C[C@H](O[C@H]4CC[C@@]5(C)[C@H](CC[C@@H]6[C@@H]5C[C@@H](O)[C@]5(C)[C@@H](C7=CC(=O)OC7)CC[C@]65O)C4)O[C@@H]3C)O[C@@H]2C)C[C@H](O)[C@@H]1O [Digoxin]
- Decrease of digoxin-Pgp interaction for mutants compared to wild-type Pgp [3]: two- to four-fold
